In ChEMBL document CHEMBL3797109, “Biochemometrics for Natural Products Research: Comparison of Data Analysis Approaches and Application to Identification of Bioactive Compounds” (2016):
≈ marks a conversion by molar mass, not a printed value.

Assays:
[1] = test system: Staphylococcus aureus; test: Antimicrobial activity against Staphylococcus aureus SA1199 after 24 hrs by CLSI method; format: functional; details: SA1199, 24 h
[2] = test system: Staphylococcus aureus; test: Antimicrobial activity against methicillin-resistant Staphylococcus aureus USA300 LAC AH1263 after 24 hrs by CLSI method; format: functional; details: USA300 LAC AH1263, 24 h

SMILES | MIC [1] | MIC [2]
C[C@@H]1OC(=O)/C=C/[C@@H](O)[C@H](C)OC(=O)C[C@H](C)OC(=O)/C=C/[C@H]1O | 219 µM (≈ 75 µg/mL) | 
COc1cc(O)c2c(=O)oc3cc(O)cc(C)c3c2c1 | 275 µM (≈ 74.9 µg/mL) | 
COc1ccc2cc3[n+](cc2c1OC)CCc1cc2c(cc1-3)OCO2 [BERBERINE] | 446 µM | 446 µM
